From the CheMixHub viscosity set

Assay: xn = mol fraction of the nth substance listed

COC(=O)c1ccccc1 + CN(C)C=O
viscosity [mPa·s], 101.3 kPa
Details | x2 = 0.1213 | x2 = 0.1914 | x2 = 0.2976 | x2 = 0.3961 | x2 = 0.5284 | x2 = 0.6218 | x2 = 0.7468 | x2 = 0.8028 | x2 = 0.9311
298.15 K | 1.74 | 1.644 | 1.507 | 1.388 | 1.239 | 1.141 | 1.02 | 0.969 | 0.86
303.15 K | 1.622 | 1.536 | 1.413 | 1.306 | 1.169 | 1.078 | 0.963 | 0.915 | 0.81
308.15 K | 1.524 | 1.447 | 1.334 | 1.235 | 1.107 | 1.022 | 0.913 | 0.867 | 0.764
313.15 K | 1.305 | 1.252 | 1.173 | 1.1 | 1.003 | 0.936 | 0.848 | 0.809 | 0.721

CC[NH+](C)CC.[Br-] + O
viscosity [mPa·s], 100 kPa
Details | 298.15 K | 303.15 K | 308.15 K | 313.15 K | 318.15 K | 323.15 K
x1 = 0.016 | 1.149 | 1.026 | 0.925 | 0.841 | 0.771 | 0.712
x1 = 0.0229 | 1.243 | 1.107 | 0.996 | 0.903 | 0.825 | 0.759
x1 = 0.0355 | 1.458 | 1.295 | 1.162 | 1.051 | 0.955 | 0.873
x1 = 0.0793 | 2.422 | 2.124 | 1.882 | 1.681 | 1.513 | 1.368
x1 = 0.0986 | 3.011 | 2.633 | 2.318 | 2.061 | 1.843 | 1.658
x1 = 0.1267 | 4.05 | 3.504 | 3.07 | 2.707 | 2.389 | 2.142
x1 = 0.1508 | 5.154 | 4.438 | 3.862 | 3.379 | 2.988 | 2.658
x1 = 0.1806 | 6.655 | 5.646 | 4.861 | 4.22 | 3.695 | 3.267
x1 = 0.2148 | 9.109 | 7.787 | 6.643 | 5.74 | 5.002 | 4.39
x1 = 0.2422 | 11.37 | 9.636 | 8.251 | 7.129 | 6.196 | 5.432
x1 = 0.2866 | 15.38 | 12.8 | 10.79 | 9.194 | 7.919 | 6.897
x1 = 0.3332 | 21.46 | 17.54 | 14.61 | 12.29 | 10.49 | 9.032
x1 = 0.4014 | 33.72 | 26.93 | 21.98 | 18.17 | 15.2 | 12.89

CCCCOCCO + Cc1ccccc1
viscosity [mPa·s], 101 kPa
Details | 298.15 K | 308.15 K
x1 = 0.055 | 0.593 | 0.531
x1 = 0.1509 | 0.678 | 0.597
x1 = 0.2513 | 0.784 | 0.679
x1 = 0.3489 | 0.909 | 0.775
x1 = 0.4511 | 1.066 | 0.896
x1 = 0.5015 | 1.156 | 0.965
x1 = 0.5525 | 1.257 | 1.042
x1 = 0.6512 | 1.483 | 1.215
x1 = 0.7494 | 1.759 | 1.425
x1 = 0.8498 | 2.105 | 1.689
x1 = 0.9541 | 2.551 | 2.03
